Data taken from US12559496B2, “Imidazopyrimidines as modulators of IL-17” (Janssen Pharmaceutica NV, priority 2020, dated 2026).
pIC50: −log10 of the molar value.

Key:
[1] = target: IL-17A(FLAG-Tagged): IL-17RA(His-Tagged) (Homo sapiens, UniProt Q16552, K93Q); assay: IL-17A(FLAG-Tagged): IL-17RA(His-Tagged) Binding Disruption Eu-HTRF Assay; conditions: disruption of IL-17A/IL-17RA binding; simple average if tested more than once
Description: IL-17A(FLAG-Tagged): IL-17RA(His-Tagged) Binding Disruption Eu-HTRF Assay
An antibody directed against the FLAG tag of IL-17A (SEQ ID NO: 1) is labeled with the HTRF donor chromophore (Europium-cryptate). IL-17A is present as a dimer that is “locked into” this quaternary structure due to the formation of loop-spanning […] disulfide bridges. The construct of IL-17RA used in the assay excludes the […] portion of the receptor and is fused to a C-terminal 10×His tag (SEQ ID NO:2). An antibody directed against the His tag of the IL-17RA chimera is labeled with the HTRF acceptor chromophore (“D2”). The fluorescence-resonance energy transfer (FRET) depends on the vicinity of the donor chromophore to the acceptor, and interruption of the binding between the IL-17A and IL-17RA causes the reduction/loss of FRET. Therefore, this assay allows to evaluate the compound effect on the binding IL-17A and IL-17RA by monitoring the fluorescence intensity of donor vs acceptor. The assay is run as described below.
40 nL of 2-fold serial diluted compound solution for total 22 dilution points is added into each well of a 1536-well, white, low-volume, non-binding plate (Greiner #782904), then 2 μL of FLAG tagged IL-17A at 2× final concentration (2.5 nM) in solution of PBS+0.01% Triton-X100 is added to each well. The assay plate is briefly centrifuged then incubated for 1 h at rt. A mixed solution is prepared containing 2×5 nM 10HIS×IL-17RA, 2×2.5 nM Eu-anti-FLAG (CISBIO), 2×5 nM D2-anti-HIS (CISBIO) in PBS+0.01% Triton-X100+200 mM Potassium Fluoride (Sigma 60238) and 2 μL of mix is added to each well of the assay plate. The plate is briefly centrifuged then incubated for 2 h at rt. The HTRF intensities at the wavelength of donor (620 nm) and acceptor (665 nm) are measured using BMG Pherastar. The ratio between intensities at two wavelengths is calculated and plotted against the compound concentration and the data is fitted to a one-site competition model to yield IC50 of the compound.

[2] = tested on: IL-17A-induced G-CSF production in human normal keratinocytes (NHK); assay: NHK Assay: IL-17A-induced G-CSF production in human normal keratinocytes; type: cell-based; conditions: IL-17A 5 ng/mL, 24 h, 5% FBS, simple average if tested more than once
Description: IL-17A acts directly on keratinocytes through binding to dimeric receptor IL-17RA/RC and drives the production of a number of inflammatory mediators known to be elevated in psoriasis lesional tissue. IL-17A small molecule inhibitors that block the IL-17A to interact with IL-17R would inhibit the IL-17A signaling in its targeted cells such as keratinocytes. The compound functional activity is evaluated for its impact on IL-17A-induced G-CSF production in human normal keratinocytes (NHK).
Adult normal human keratinocytes are cultured in keratinocyte growth medium (Lonza) in a flask till reaching ˜ 90% confluence, then cells are transferred to a 384-well plate at density of 3000-4000 cell/well. Recombinant human IL-17A (Gibco PHC9174) is pre-incubated with titrated compound or DMSO for 1 h at rt then added to the cell culture plate. The final concentration of IL-17A is 5 ng/mL and DMSO is 0.2%, in the culture containing 5% FBS. Cells are cultured/treated for 24 h at 37° C. Supernatants are collected and G-CSF production is measured through HTRF technology using Human G-CSF Kit (CisBio). G-CSF concentration was extrapolated from the standard curve and IC50 is determined using GraphPad Prism. Cell viability is also evaluated using CellTiter-Glo kit (Promega) and effect of compound on cell viability is compared to DMSO control.

UniProt Q16552, sequence (Q16552 with tags, fused parts or gaps K93Q): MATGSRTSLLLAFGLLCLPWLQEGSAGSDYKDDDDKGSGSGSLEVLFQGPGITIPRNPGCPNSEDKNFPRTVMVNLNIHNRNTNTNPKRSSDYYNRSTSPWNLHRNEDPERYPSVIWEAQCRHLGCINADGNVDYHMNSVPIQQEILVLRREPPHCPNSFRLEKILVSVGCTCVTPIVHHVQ

Structure (SMILES) | pIC50 [1] | pIC50 [2] | pIC50 ([2]; Homo sapiens, Keratinocyte)
CC(CC(=O)N[C@H](c1ccn2cc([C@@H](NC(=O)c3conc3CCC(F)(F)F)C3CCC(F)(F)CC3)nc2n1)C1CC1)C(F)(F)F (single isomer, unassigned) [Example 8, N—((S)-(7-((S)-Cyclopropyl((R*)-4,4,4-trifluoro-3-methylbutanamido)methyl)imidazo[1,2-a]pyrimidin-2-yl)(4,4-difluorocyclohexyl)methyl)-3-(3,3,3-trifluoropropyl)isoxazole-4-carboxamide] | 5.96 | 5.22 | 
O=C(CCC(F)(F)F)N[C@@H](c1ccn2cc([C@@H](NC(=O)c3conc3C3CC3)C3CCC(F)(F)CC3)nc2n1)C1CC1 [Example 36, 3-Cyclopropyl-N—((S)-(7-((R)-cyclopropyl(4,4,4-trifluorobutanamido)methyl)imidazo[1,2-a]pyrimidin-2-yl)(4,4-difluorocyclohexyl)methyl)isoxazole-4-carboxamide] | 6.66 |  | 6.72
CC(CC(=O)N[C@H](c1ccn2cc([C@@H](NC(=O)c3conc3C3CC3)C3CCC(F)(F)CC3)nc2n1)C1CC1)C(F)(F)F (single isomer, unassigned) [Example 9, 3-Cyclopropyl-N—((S)-(7-((S)-cyclopropyl((S*)-4,4,4-trifluoro-3-methylbutanamido)methyl)imidazo[1,2-a]pyrimidin-2-yl)(4,4-difluorocyclohexyl)methyl)isoxazole-4-carboxamide] | 5.74 | 6.21 | 
O=C(CCC(F)(F)F)N[C@H](c1ccn2cc([C@@H](NC(=O)c3ncnn3CC3CC3)C3CCC(F)(F)CC3)nc2n1)C1CC1 [Example 33, N—((S)-(7-((S)-Cyclopropyl(4,4,4-trifluorobutanamido)methyl)imidazo[1,2-a]pyrimidin-2-yl)(4,4-difluorocyclohexyl)methyl)-1-(cyclopropylmethyl)-1H-1,2,4-triazole-5-carboxamide] | 5.06 |  | < 4.70
O=C(CC1CC(F)(F)C1)N[C@@H](c1ccn2cc([C@@H](NC(=O)c3conc3CCC(F)(F)F)C3CCC(F)(F)CC3)nc2n1)C1CC1 [Example 26, N—((S)-(7-((R)-Cyclopropyl(2-(3,3-difluorocyclobutyl)acetamido)methyl)imidazo[1,2-a]pyrimidin-2-yl)(4,4-difluorocyclohexyl)methyl)-3-(3,3,3-trifluoropropyl)isoxazole-4-carboxamide] | 6.89 |  | 6.96
O=C(CC1CC1(F)F)N[C@@H](c1ccn2cc([C@@H](NC(=O)c3ncnn3CC3CC3)C3CCC(F)(F)CC3)nc2n1)C1CC1 (single isomer, unassigned) [Example 55, N—((S)-(7-((R)-Cyclopropyl(2-((S*)-2,2-difluorocyclopropyl)acetamido)methyl)imidazo[1,2-a]pyrimidin-2-yl)(4,4-difluorocyclohexyl)methyl)-1-(cyclopropylmethyl)-1H-1,2,4-triazole-5-carboxamide] | 6.24 |  | 5.96
Cc1nonc1C(=O)N[C@H](c1cn2ccc([C@@H](NC(=O)CC3CC(F)(F)C3)C3CC3)nc2n1)C1CCC(F)(F)CC1 [Example 22, N—((S)-(7-((S)-Cyclopropyl(2-(3,3-difluorocyclobutyl)acetamido)methyl)imidazo[1,2-a]pyrimidin-2-yl)(4,4-difluorocyclohexyl)methyl)-4-methyl-1,2,5-oxadiazole-3-carboxamide] | 5.21 |  | < 4.70
O=C(CC1CC(F)(F)C1)N[C@@H](c1ccn2cc([C@@H](NC(=O)c3ncnn3CC3CC3)C3CCC(F)(F)CC3)nc2n1)C1CC1 [Example 15, N—((S)-(7-((R)-Cyclopropyl(2-(3,3-difluorocyclobutyl)acetamido)methyl)imidazo[1,2-a]pyrimidin-2-yl)(4,4-difluorocyclohexyl)methyl)-1-(cyclopropylmethyl)-1H-1,2,4-triazole-5-carboxamide] | 6.54 |  | 5.85
O=C(CC1CC1(F)F)N[C@@H](c1ccn2cc([C@@H](NC(=O)c3ncnn3CC3CC3)C3CCC(F)(F)CC3)nc2n1)C1CC1 (single isomer, unassigned) [Example 56, N—((S)-(7-((R)-Cyclopropyl(2-((R*)-2,2-difluorocyclopropyl)acetamido)methyl)imidazo[1,2-a]pyrimidin-2-yl)(4,4-difluorocyclohexyl)methyl)-1-(cyclopropylmethyl)-1H-1,2,4-triazole-5-carboxamide] | 6.14 | 5.74 | 
O=C(CC1CC(F)(F)C1)N[C@H](c1ccn2cc([C@@H](NC(=O)c3ccnc(CC(F)(F)F)c3)C3CCC(F)(F)CC3)nc2n1)C1CC1 [Example 28, N—((S)-(7-((S)-Cyclopropyl(2-(3,3-difluorocyclobutyl)acetamido)methyl)imidazo[1,2-a]pyrimidin-2-yl)(4,4-difluorocyclohexyl)methyl)-2-(2,2,2-trifluoroethyl)isonicotinamide] | 5.27 |  | 5.92
CC(C)n1ncnc1C(=O)N[C@H](c1cn2ccc([C@H](NC(=O)CC3CC(F)(F)C3)C3CC3)nc2n1)C1CCC(F)(F)CC1 [Example 13, N—((S)-(7-((R)-Cyclopropyl(2-(3,3-difluorocyclobutyl)acetamido)methyl)imidazo[1,2-a]pyrimidin-2-yl)(4,4-difluorocyclohexyl)methyl)-1-isopropyl-1H-1,2,4-triazole-5-carboxamide] | 6.47 |  | 6.30
O=C(CCC(F)(F)F)NC(c1ccn2cc([C@@H](NC(=O)c3cnn(CCC(F)(F)F)c3)C3CCC(F)(F)CC3)nc2n1)C1CC1 (single isomer, unassigned) [Example 49, N—((S)-(7-((S*)-Cyclopropyl(4,4,4-trifluorobutanamido)methyl)imidazo[1,2-a]pyrimidin-2-yl)(4,4-difluorocyclohexyl)methyl)-1-(3,3,3-trifluoropropyl)-1H-pyrazole-4-carboxamide] | 6.30 |  | 6.13
Cc1conc1C(=O)N[C@H](c1cn2ccc([C@H](NC(=O)CC3CC3(F)F)C3CC3)nc2n1)C1CCC(F)(F)CC1 (single isomer, unassigned) [Example 54, N—((S)-(7-((R)-Cyclopropyl(2-((R*)-2,2-difluorocyclopropyl)acetamido)methyl)imidazo[1,2-a]pyrimidin-2-yl)(4,4-difluorocyclohexyl)methyl)-4-methylisoxazole-3-carboxamide] | 6.34 | 5.35 | 
Cc1nonc1C(=O)N[C@H](c1cn2ccc([C@H](NC(=O)CC3CC(F)(F)C3)C3CC3)nc2n1)C1CCC(F)(F)CC1 [Example 21, N—((S)-(7-((R)-Cyclopropyl(2-(3,3-difluorocyclobutyl)acetamido)methyl)imidazo[1,2-a]pyrimidin-2-yl)(4,4-difluorocyclohexyl)methyl)-4-methyl-1,2,5-oxadiazole-3-carboxamide] | 7.00 |  | 6.23
Cc1nonc1C(=O)N[C@H](c1cn2ccc([C@H](NC(=O)CCC(F)(F)F)C3CC3)nc2n1)C1CCC(F)(F)CC1 [Example 23, N—((S)-(7-((R)-Cyclopropyl(4,4,4-trifluorobutanamido)methyl)imidazo[1,2-a]pyrimidin-2-yl)(4,4-difluorocyclohexyl)methyl)-4-methyl-1,2,5-oxadiazole-3-carboxamide] | 6.89 |  | 6.28
